Source: patent publication US9018391B2, “Inhibitors of beta-secretase” (Boehringer Ingelheim International GmbH, priority 2012, dated 2015)

How the values were obtained:
[1] = biological target: truncated human beta-secretase, BACE1 (amino acids 1-454) (Homo sapiens (Human), UniProt P56817); assay: BACE1 Assay (Assay 1), fluorescence quench assay; assay type: biochemical; settings: pH 4.4
Procedure: The substrate was dissolved at 1 mg/ml in DMSO.
The assay was performed in the presence of OptiMEM™ (supernatant collected over 24 h and cleared from cellular debris by centrifugation) containing the ectodomain of BACE1, 25 μl water containing the desired 2-fold concentration of test compound and 2% DMSO, 1 μM substrate peptide, 20 mM NaOAc, pH 4.4, and 0.04% Triton-X100 in a total assay volume of 50 μl in a 384 well plate. In general, 25 μl of compound dilution were added to the plate followed by the addition of 10 μl of BACE1 containing OptiMEM™ diluted 1:10 in water with 0.2% Triton X-100. The reaction was started with the addition of 15 μl substrate in NaOAc buffer. The reaction was incubated at rt (dark) in an Envision® multilabel reader (Perkin Elmer) and the cleavage of the substrate was recorded as kinetic for […] at ex: 485 nm, em: 538 nm. Blank wells containing no enzyme were included on each plate.
The intensity of fluorescence was regressed against time in order to derive velocities of reaction in all 384 wells. These velocities were used for calculating percent control using an uninhibited control containing 1% DMSO as 100% and a blank control performed in the absence of enzyme as 0%. IC50 values were calculated by fitting percent control vs. test compound concentration using Assay Explorer®.

[2] = biological target: hERG channel (Homo sapiens (Human), UniProt Q12809); assay: hERG-Channel Assay (Assay 2), whole-cell patch clamp in HEK293 cells stably transfected with hERG cDNA; assay type: cell-based; settings: for inhibition at 10 µM: human, HEK293 cells stably transfected with hERG cDNA, pH 7.4, 35° C.
From the text: hERG-Channel Assay (Assay 2)
Cells: HEK (human embryonic kidney) 293 cells were stably transfected with hERG cDNA.
Cells were superfused with a bath solution containing (mM): NaCl (137), KCl (4.0), MgCl2 (1.0), CaCl2 (1.8), Glucose (10), HEPES (10), pH 7.4 with NaOH. Patch pipettes were made from borosilicate glass tubing using a horizontal puller and filled with pipette solution containing (mM): K-aspartate (130), MgCl2 (5.0), EGTA (5.0), K2ATP (4.0), HEPES (10.0), pH 7.2 with KOH. Resistance of the microelectrodes was in the range between 2 and 5 MΩ.
Stimulation and Recording:
Membrane currents were recorded using an EPC-10 patch clamp amplifier and PatchMaster software. hERG-mediated membrane currents were recorded at 35° C., using the whole-cell configuration of the patch-clamp technique. Transfected HEK293 cells were clamped at a holding potential of −60 mV and hERG-mediated inactivating tail currents were elicited using a pulse pattern with fixed amplitudes (activation/inactivation: 40 mV for 2000 ms; recovery: −120 mV for 2 ms; ramp to 40 mV in 2 ms; inactivating tail current: 40 mV for 50 ms) repeated at 15 s intervals. During each inter-pulse interval, 4 pulses scaled down by a factor of 0.2 were recorded for a P/n leak subtraction procedure. Rs compensation was employed up to a level that safely allowed recording devoid of ringing.
Compound Preparation and Application:
The different concentrations of the test compounds were applied sequentially on each of the different cells investigated. A steady state level of baseline current was measured for at least 6 sweeps prior to the application of the first test compound concentration.
The test compound was dissolved in DMSO to yield a master stock solution which was diluted further in DMSO to stock solutions needed for the lower concentrations. Final dilutions in extracellular buffer were prepared freshly from these stocks by a 1:1000 dilution step each before starting the experiments.
Peak current amplitudes were measured 3 ms after the ramp to +40 mV. For baseline and each concentration, the peak currents of the three last sweeps before application of the next concentration were averaged. Residual currents (I/I0) were calculated for each cell as the fraction of actual average peak current and average baseline peak current.

[3] = In Vitro Phospholipidosis Assay (Assay 3), Nile red staining; assay type: cell-based, human; settings: human, first effect concentration, U937 cells, read-out: Phospholipidosis FEC IC50 μM (assay 3)
Procedure: In Vitro Phospholipidosis Assay (Assay 3)
The phospholipidogenic potential of test compounds was assayed using the human hematopoetic U937 cell line. The test principle was to analyze the phospholipid content by staining the cells with the fluorescent dye Nile red.
U937 cells were seeded into cell culture plates at 0.5×10^6 cells/mL in RPMI medium containing 10% FBS, 1% DMSO, and 0.005% gentamicin. The cells were cultivated with or without different concentrations of test compound for 48 h under standard culture conditions.
For harvesting, the cells were centrifuged at 130×g for 4 min and washed once with PBS. Then, 2×0.5 mL cell suspensions were prepared for non-fixed cell measurement (0.5 mL for propidium iodide (PI) viability measurement and 0.5 mL for Nile red measurement).
The remaining cells were fixed with 3.7% formaldehyde for 30 min. After a further centrifugation step, cells were resuspended with 1.3 mL Nile red working solution (1 μg/mL) and incubated for 5 min at rt. The cell suspension was washed twice with 3 mL PBS and centrifuged with 130×g for 4 min. The supernatant was discarded and the cells were resuspended with 0.5 mL PBS and kept for flow cytometry measurement.
For Nile red staining of the 0.5 mL non-fixed cell samples, 50 μL of a ready to use Nile red solution (10 μg/mL) were added per sample. Samples were kept on ice for 5 min. Thereafter, they were washed once with 4 mL PBS (4° C., 250×g for 8 min) and finally resuspended in 400 μL PBS and kept for flow cytometry measurement.
For the viability measurement, 12.5 μL of the ready to use PI solution (10 μg/mL) were added to the 0.5 mL non-fixed cell suspension. After 15 min of incubation on ice, the samples were measured by flow cytometry using a Coulter Epics XL/MCL flow cytometer.
The viability of the cells of each sample was determined by flow cytometry measurement of the PI content at channel 2 (568-590 nm). Cut-off gates for the fluorescence-dependent differentiation between live and dead cells were defined based on the analysis of cell culture medium control samples.
Only samples with a cell viability of >=90% relative to control samples were analyzed for phospholipidosis. Each Nile red sample (non-fixed and fixed samples) was measured by flow cytometry at channel 1 (504-541 nm) and channel 4 (660-680 nm).
For each channel, relative Nile red fluorescence intensity of a test sample was calculated compared to control samples and expressed as a percentage of control fluorescence intensity. The assessment of the phospholipidogenic potential and the first effective concentration (FEC) of a test compound was done manually based on the fluorescence intensities at both wavelengths for the fixed cells, as well as for the non-fixed cells.

[4] = system: Human Hepatocytes; assay: In Vitro Hepatocyte Stability Assay (Assay 4); assay type: in vitro ADME; settings: predicted blood clearance as percent of hepatic blood flow
Procedure: In Vitro Hepatocyte Stability Assay (Assay 4)
The metabolic degradation of test compounds was assayed in a hepatocyte suspension. Cryopreserved hepatocytes were incubated in an appropriate buffer system (e.g., Dulbecco's modified eagle medium plus 3.5 μg glucagon/500 mL, 2.5 mg insulin/500 mL and 3.75 mg/500 mL hydrocortison) containing 5% species serum. Following a 30 min preincubation in an incubator (37° C., 10% CO2), 5 μl of test compound solution (80 μM; from 2 mM in DMSO stock solution diluted 1:25 with medium) were added into 395 μl hepatocyte suspension (cell density in the range 0.25−5×10^6 cells/mL, typically 1×10^6 cells/mL; final concentration of test compound final DMSO concentration […]).
The cells were incubated for six h (incubator, orbital shaker) and samples (25 μl) were taken at 0, 0.5, 1, 2, 4 and 6 h. Samples were transferred into acetonitrile and pelleted by centrifugation (5 min). The supernatant was transferred to a new 96 DeepWell™ plate, evaporated under nitrogen and resuspended. Decline of compound was analyzed by HPLC-MS/MS. CLint (in vitro hepatic intrinsic clearance) was calculated as follows: CLint=Dose/AUC=(C0/CD)/(AUD+Clast/k)×1000/60
C0: initial concentration in the incubation [μM];
CD: cell density of vital cells [cells/mL];
AUD: area under the data [μM×h];
Clast: concentration of last data point [μM];
k: slope of the regression line for compound decline [h^−1].
The calculated in vitro hepatic intrinsic clearance was scaled up to the intrinsic in vivo hepatic clearance (Clint in vivo) and used to predict hepatic in vivo blood clearance (CL) by the use of a liver model (well-stirred model), as follows: CLint,in vivo[mL/min/kg]=(CLint[μL/min/10^6 cells]×hepatocellularity[10^6 cells/g liver]×liver factor [g/kg body weight])/1000 CL[mL/min/kg]=CLint,to vivo×hepatic blood flow[ml/min/kg]/(CLint,in vivo[ml/min/kg]+hepatic blood flow[mL/min/kg])
The in vivo blood clearance was transformed into percent of the hepatic blood flow (% Qh): % Qh=CL[mL/min/kg]/hepatic blood flow[mL/min/kg])×100
Hepatocellularity, human: 1.2×10^7 cells/g liver;
Liver factor, human: 25.7 g/kg body weight;
Hepatic blood flow, human: 21 mL/(min×kg).

Chain of truncated human beta-secretase, BACE1 (amino acids 1-454) (P56817 22-454): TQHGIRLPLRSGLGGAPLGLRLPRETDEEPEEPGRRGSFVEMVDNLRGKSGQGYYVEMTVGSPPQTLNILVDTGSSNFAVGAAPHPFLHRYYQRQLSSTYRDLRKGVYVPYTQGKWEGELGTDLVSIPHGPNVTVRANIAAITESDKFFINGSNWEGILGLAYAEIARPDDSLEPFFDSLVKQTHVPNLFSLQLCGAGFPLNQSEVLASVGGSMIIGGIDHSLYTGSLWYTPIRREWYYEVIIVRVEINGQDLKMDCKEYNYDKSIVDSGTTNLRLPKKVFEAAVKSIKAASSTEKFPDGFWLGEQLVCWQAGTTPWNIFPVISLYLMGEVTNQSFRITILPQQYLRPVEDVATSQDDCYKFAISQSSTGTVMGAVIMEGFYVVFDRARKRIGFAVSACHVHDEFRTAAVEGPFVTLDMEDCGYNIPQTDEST
Chain of hERG channel (Q12809 whole entry): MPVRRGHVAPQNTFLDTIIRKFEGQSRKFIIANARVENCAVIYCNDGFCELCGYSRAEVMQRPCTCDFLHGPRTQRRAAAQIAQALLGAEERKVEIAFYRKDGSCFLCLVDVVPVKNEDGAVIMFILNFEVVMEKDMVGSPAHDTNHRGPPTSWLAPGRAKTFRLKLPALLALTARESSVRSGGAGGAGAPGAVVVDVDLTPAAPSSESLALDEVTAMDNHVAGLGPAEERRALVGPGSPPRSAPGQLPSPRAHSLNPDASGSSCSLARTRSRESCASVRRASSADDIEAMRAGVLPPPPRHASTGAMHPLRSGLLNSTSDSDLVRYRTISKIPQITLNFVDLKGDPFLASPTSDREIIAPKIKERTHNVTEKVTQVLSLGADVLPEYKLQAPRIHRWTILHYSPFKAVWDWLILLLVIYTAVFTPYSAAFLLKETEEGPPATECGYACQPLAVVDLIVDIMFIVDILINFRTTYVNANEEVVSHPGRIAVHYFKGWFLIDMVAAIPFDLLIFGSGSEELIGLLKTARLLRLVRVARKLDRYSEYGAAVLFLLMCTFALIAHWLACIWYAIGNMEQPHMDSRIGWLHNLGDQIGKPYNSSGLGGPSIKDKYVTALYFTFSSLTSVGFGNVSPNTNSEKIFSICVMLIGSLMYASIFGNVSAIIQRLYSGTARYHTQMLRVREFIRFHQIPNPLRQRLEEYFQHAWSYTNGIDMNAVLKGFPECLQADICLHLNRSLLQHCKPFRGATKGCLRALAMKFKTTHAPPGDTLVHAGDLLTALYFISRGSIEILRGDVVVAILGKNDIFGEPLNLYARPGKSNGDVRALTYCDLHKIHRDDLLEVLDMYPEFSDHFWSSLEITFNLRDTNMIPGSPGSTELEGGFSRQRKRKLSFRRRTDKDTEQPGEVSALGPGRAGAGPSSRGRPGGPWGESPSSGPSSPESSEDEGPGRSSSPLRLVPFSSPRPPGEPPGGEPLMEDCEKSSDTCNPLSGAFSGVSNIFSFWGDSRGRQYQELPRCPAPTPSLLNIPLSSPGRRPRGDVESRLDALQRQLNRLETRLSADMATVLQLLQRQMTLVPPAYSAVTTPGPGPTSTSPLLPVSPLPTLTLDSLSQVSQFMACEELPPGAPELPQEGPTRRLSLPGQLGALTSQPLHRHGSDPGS

Row | IC50 [1] [nM] | In vitro Human Hepatocytes % Qh @ 1 μM (assay 4) [4] [% Qh] | SMILES | inhibition at 10 µM [2] [%] | IC50 at 48 h [3] [µM] | % Inhibition hERG @ 10 μM (assay 2) ([2]; 35° C.) [%]
1 | 4.5 | 5.2 | C[C@@H]1C[C@@]2(Cc3ccc(C#N)cc3[C@]23N=C(N)N(CC2CC(F)(F)C2)C3=O)C[C@H](C)[C@H]1O.O=C(O)C(F)(F)F [Example 14] | 27 | 200 | –
2 | 10.6 | 0 | C[C@@H]1C[C@@]2(Cc3ccc(C#N)cc3[C@]23N=C(N)N(CC2CC2)C3=O)C[C@H](C)[C@H]1O [Example 10] | 33 | > 100 | –
3 | 5.1 | 8.5 | COC1CCC2(CC1)Cc1ccc(C#CC3CC3)cc1C21N=C(N)N(Cc2ncco2)C1=O (stereo not drawn) [drawing 17, reference compound] | – | – | 60
4 | 9.4 | 19 | Cc1cc(CN2C(=O)[C@]3(N=C2N)c2cc(C#N)ccc2C[C@@]32C[C@@H](C)[C@H](O)[C@@H](C)C2)ccn1.O=C(O)C(F)(F)F [Example 16] | 1.4 | 200 | –
5 | 256 | – | COCC(C)N1C(=O)C2(N=C1N)c1cc(C#N)ccc1CC21CCC(OC)CC1 (stereo not drawn) [reference compound] | – | – | –
6 | 14.6 | 0 | C[C@@H]1CC2(Cc3ccc(Cl)cc3[C@]23N=C(N)N(Cc2ncccn2)C3=O)C[C@H](C)[C@H]1O (stereo partly drawn) [Example 11] | 19 | 200 | –
7 | 9.7 | 22.9 | C[C@@H]1C[C@@]2(Cc3ccc(C#N)cc3[C@]23N=C(N)N(CCc2ccncc2)C3=O)C[C@H](C)[C@H]1O.O=C(O)C(F)(F)F [Example 15] | 15.2 | 800 | –
8 | 8.7 | 4.2 | C[C@H]1C[C@@]2(CC[C@@H]1O)Cc1ccc(C#N)cc1[C@]21N=C(N)N(CC2CC(F)(F)C2)C1=O [Example 13] | 12 | 200 | –
9 | 2.6 | 6.1 | C[C@@H]1C[C@@]2(Cc3ccc(-c4cncnc4)cc3[C@]23N=C(N)N(CC(C)(C)F)C3=O)C[C@H](C)[C@H]1O [Example 5] | 12 | 400 | –
10 | 3 | 3.1 | C[C@@H]1C[C@@]2(Cc3ccc(C#N)cc3[C@]23N=C(N)N(CC(C)(C)Cl)C3=O)C[C@H](C)[C@H]1O [Example 3] | 20 | 200 | –
11 | 7.3 | 43 | COCCCOc1ccc2c(c1)C1(N=C(N)N(CC(F)F)C1=O)[C@]1(CC[C@H](OC)CC1)C2 (stereo partly drawn) [reference compound] | 36 | 50 | –
12 | 8.3 | – | CO[C@H]1CC[C@]2(CC1)Cc1ccc(OCC3CC3)cc1C21N=C(N)N(CCC(F)(F)F)C1=O (stereo partly drawn) [reference compound] | 87 | – | –
13 | – | – | COC1CCC2(CC1)Cc1ccc(Cl)cc1[C@]21N=C(N)N(C)C1=O (stereo partly drawn) [reference compound] | 58 | 100 | –
14 | 5.1 | 8.5 | COC1CCC2(CC1)Cc1ccc(C#CC3CC3)cc1C21N=C(N)N(Cc2ncco2)C1=O (stereo not drawn) [drawing 13, reference compound] | 60 | – | –
15 | 3.5 | 88 | CO[C@H]1CC[C@]2(CC1)Cc1ccc(CCC(C)C)cc1C21N=C(N)N(CC(F)(F)F)C1=O (stereo partly drawn) [reference compound] | 89 | – | –
16 | – | 14 | COC1CCC2(CC1)Cc1ccc(C#N)cc1[C@]21N=C(N)N(C)C1=O (stereo partly drawn) [drawing 10, reference compound] | 90 | 400 | –
17 | 6.8 | 0 | C[C@H]1C[C@@]2(CC[C@@H]1O)Cc1ccc(-c3cccnc3)cc1[C@]21N=C(N)N(Cc2ncccn2)C1=O [Example 12] | 15 | 100 | –
